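Exposure lasted 48 hours, with cells grown in 96-well plates and compounds tested at five concentrations. GI50: concentration for 50% inhibition of growth.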 Activity calls are given as the source filed them. No stated cut-off is given here; in the data, active = GI50 up to about 1.1 µM and inactive = higher.
Assays:
Assay in all cases: NCI tumour cell line growth inhibition, 48 h
T47D = tested on: T47D
SF-539 = tested on: SF-539
MCF7 = tested on: MCF7
UACC-62 = tested on: UACC-62
MDA-N = tested on: MDA-N
Hs-578T = tested on: Hs-578T
HT-29 = tested on: HT-29
HCC 2998 = tested on: HCC 2998
OVCAR-3 = tested on: OVCAR-3
MDA-MB-435 = tested on: MDA-MB-435
KM12 = tested on: KM12
SF-268 = tested on: SF-268
CCRF-CEM = tested on: CCRF-CEM
IGROV-1 = tested on: IGROV-1
COLO 205 = tested on: COLO 205
DU-145 = tested on: DU-145
HOP-62 = tested on: HOP-62
SR = tested on: SR
NCI-H522 = tested on: NCI-H522
A549 = tested on: A549

Row | Structure (SMILES) | GI50 (T47D) | GI50 (SF-539) | GI50 (MCF7) | GI50 (UACC-62) | GI50 (MDA-N) | GI50 (Hs-578T) | GI50 (HT-29) | GI50 (HCC 2998) | GI50 (OVCAR-3) | GI50 (MDA-MB-435) | GI50 (KM12) | GI50 (SF-268) | GI50 (CCRF-CEM) | GI50 (IGROV-1) | GI50 (COLO 205) | GI50 (DU-145) | GI50 (HOP-62) | GI50 (SR) | GI50 (NCI-H522) | GI50 (A549)
1 | O=[N+]([O-])C(/C=C(\Cl)[N+](=O)[O-])=C(N1CCCCC1)N1CCCCC1 | 53 µM (inactive) | 25.9 µM (inactive) | 0.631 µM (active) | 18.6 µM (inactive) | 22.4 µM (inactive) | 58.2 µM (inactive) | 31.3 µM (inactive) | 44.7 µM (inactive) | 27.5 µM (inactive) | 16.7 µM (inactive) | > 100 µM (inactive) | 51.2 µM (inactive) | 13.2 µM (inactive) | 21.9 µM (inactive) | 21.5 µM (inactive) | 62.5 µM (inactive) | 39.6 µM (inactive) | 14.1 µM (inactive) | 58.6 µM (inactive) | 15.6 µM (inactive)
2 | CC(C)(C)OC(=O)N1CCC2(C)CC(=O)CC=C12 (stereo not given) | > 100 µM (inactive) | > 100 µM (inactive) | > 100 µM (inactive) | > 100 µM (inactive) | > 100 µM (inactive) | > 100 µM (inactive) | > 100 µM (inactive) | > 100 µM (inactive) | > 100 µM (inactive) | > 100 µM (inactive) | > 100 µM (inactive) | > 100 µM (inactive) | 27.2 µM (inactive) | > 100 µM (inactive) | > 100 µM (inactive) | > 100 µM (inactive) | > 100 µM (inactive) | 72.4 µM (inactive) | 45.4 µM (inactive) | > 100 µM (inactive)
3 | O=C(Cc1ccc(Cl)c(Cl)c1)NCCCN1CCN(CCCN2CCCCC2)CC1 | 20.3 µM (inactive) | 14.2 µM (inactive) | 18.5 µM (inactive) | 3.84 µM (inactive) | 2.45 µM (inactive) | 14.1 µM (inactive) | 10.8 µM (inactive) | 2.89 µM (inactive) | 25.5 µM (inactive) | 1.9 µM (inactive) | 15.8 µM (inactive) | 19.5 µM (inactive) | 16 µM (inactive) | 27.1 µM (inactive) | 13.2 µM (inactive) | 40.5 µM (inactive) | 17 µM (inactive) | 11.7 µM (inactive) | 15.7 µM (inactive) | 20.6 µM (inactive)
4 | OCC(S)CS.[Bi] (stereo not given) | 8.89 µM (inactive) | 15.4 µM (inactive) | 18.5 µM (inactive) | 17.9 µM (inactive) | 14.1 µM (inactive) | 15.9 µM (inactive) | 19 µM (inactive) | 13.6 µM (inactive) | 10.8 µM (inactive) | 15.2 µM (inactive) | 19.1 µM (inactive) | 5.43 µM (inactive) | 1.25 µM (inactive) | 18.3 µM (inactive) | 14.5 µM (inactive) | 18.3 µM (inactive) | 19.1 µM (inactive) | 4.06 µM (inactive) | 1.58 µM (inactive) | 28 µM (inactive)
5 | Cc1ccc(-c2c(-c3ccccc3)[nH]c(C)c2C(=O)ONC(=O)c2ccccc2)cc1 | 4.6 µM (inactive) | 2.97 µM (inactive) | 4.84 µM (inactive) | 10.2 µM (inactive) | 2.35 µM (inactive) | 2.01 µM (inactive) | 7.83 µM (inactive) | 15.5 µM (inactive) | 4.49 µM (inactive) | 2.19 µM (inactive) | 9.68 µM (inactive) | 2.36 µM (inactive) | 2.97 µM (inactive) | 1.46 µM (inactive) | 11.7 µM (inactive) | 1.82 µM (inactive) | 1.99 µM (inactive) | 1.66 µM (inactive) | 2.31 µM (inactive) | 2.52 µM (inactive)
6 | COC1=C2C[C@](OC)(C#CC=CC#CC2O)CC1(C)C (stereo not given in full) | > 100 µM (inactive) | > 100 µM (inactive) | > 100 µM (inactive) | 34.6 µM (inactive) | > 100 µM (inactive) | > 100 µM (inactive) | > 100 µM (inactive) | 37.3 µM (inactive) | > 100 µM (inactive) | > 100 µM (inactive) | > 100 µM (inactive) | > 100 µM (inactive) | 34.4 µM (inactive) | 18.2 µM (inactive) | > 100 µM (inactive) | > 100 µM (inactive) | > 100 µM (inactive) | 56.4 µM (inactive) | > 100 µM (inactive) | 40.4 µM (inactive)
7 | CC(C)=CCNc1nc(Cl)nc2[nH]cnc12 | 92 µM (inactive) | > 100 µM (inactive) | 29.6 µM (inactive) | > 100 µM (inactive) | > 100 µM (inactive) | 62.8 µM (inactive) | > 100 µM (inactive) | > 100 µM (inactive) | > 100 µM (inactive) | > 100 µM (inactive) | > 100 µM (inactive) | 55 µM (inactive) | 76.6 µM (inactive) | > 100 µM (inactive) | > 100 µM (inactive) | > 100 µM (inactive) | 27.9 µM (inactive) | 37 µM (inactive) | > 100 µM (inactive) | 28.8 µM (inactive)
8 | COc1cc(C2c3cc4c(cc3OC(NNS(=O)(=O)c3ccc(C)cc3)C2C)OCO4)cc(OC)c1OC (stereo not given) | 3.48 µM (inactive) | 0.984 µM (active) | 1.48 µM (inactive) | 1.36 µM (inactive) | 0.289 µM (active) | 1.26 µM (inactive) | 1.34 µM (inactive) | 2.94 µM (inactive) | 1.26 µM (inactive) | 0.294 µM (active) | 1.26 µM (inactive) | 3.95 µM (inactive) | 1.01 µM (active) | 2.68 µM (inactive) | 2.81 µM (inactive) | 3.83 µM (inactive) | 0.817 µM (active) | 0.839 µM (active) | 1.25 µM (inactive) | 2.6 µM (inactive)
9 | COc1ccc(C(=O)/C=C/c2ccc(OCC(=N)N)cc2)cc1 | 10.7 µM (inactive) | 15.8 µM (inactive) | 13.2 µM (inactive) | 15.6 µM (inactive) | 16.7 µM (inactive) | 16.4 µM (inactive) | 15.3 µM (inactive) | 16.6 µM (inactive) | 14.4 µM (inactive) | 19.3 µM (inactive) | 12.6 µM (inactive) | 17.3 µM (inactive) | 4.06 µM (inactive) | 18.2 µM (inactive) | 14.2 µM (inactive) | 12.8 µM (inactive) | 15.8 µM (inactive) | 5 µM (inactive) | > 10 µM (inactive) | 17.7 µM (inactive)
10 | Brc1c2c(c(Br)c3nsnc13)N=S=N2 | 27.7 µM (inactive) | 22.7 µM (inactive) | 24.2 µM (inactive) | 16.2 µM (inactive) | 26.5 µM (inactive) | 21 µM (inactive) | 34.4 µM (inactive) | > 58.6 µM (inactive) | 20.9 µM (inactive) | 29.7 µM (inactive) | 46.3 µM (inactive) | 26.3 µM (inactive) | 2.65 µM (inactive) | 23.5 µM (inactive) | 41.5 µM (inactive) | > 87.1 µM (inactive) | 3.48 µM (inactive) | 4.82 µM (inactive) | 23.4 µM (inactive) | 78.5 µM (inactive)
11 | c1ccc2sc(C3(N4CCC5(CC4)OCCO5)CCCCC3)cc2c1 | > 100 µM (inactive) | > 100 µM (inactive) | 29.4 µM (inactive) | > 100 µM (inactive) | 80.4 µM (inactive) | > 100 µM (inactive) | 21.1 µM (inactive) | 27.7 µM (inactive) | > 100 µM (inactive) | 58.6 µM (inactive) | 56.4 µM (inactive) | > 100 µM (inactive) | 29 µM (inactive) | > 100 µM (inactive) | 48 µM (inactive) | > 100 µM (inactive) | > 100 µM (inactive) | 7.89 µM (inactive) | 78 µM (inactive) | > 100 µM (inactive)
12 | NC(=O)c1ncn2c(=O)n(CCCl)nnc12 [MITOZOLOMIDE] | 214 µM (inactive) | 31 µM (inactive) | 120 µM (inactive) | 24.7 µM (inactive) | 137 µM (inactive) | 208 µM (inactive) | 156 µM (inactive) | 172 µM (inactive) | 205 µM (inactive) | 170 µM (inactive) | 180 µM (inactive) | 31.6 µM (inactive) | 32.9 µM (inactive) | 132 µM (inactive) | 112 µM (inactive) | 123 µM (inactive) | 29.5 µM (inactive) | 47.3 µM (inactive) | 131 µM (inactive) | 180 µM (inactive)

From ChEMBL document CHEMBL1201862, “PubChem BioAssay data set” (2004)
